From patent US7511074B2, “Tetrafluorobenzyl derivatives and pharmaceutical composition for preventing and treating acute and chronic neurodegenerative diseases in central nervous system containing the same” (AmKor Pharma, Inc., priority 2002, dated 2009) come the findings set out here.

Structures are written as SMILES.

In experiment [1] the test system is Mouse cortical cell cultures. The experiment in a line: NMDA-induced excitotoxicity in mixed cortical cell cultures (LDH release). It is filed as cell-based. To be noted: 300 μM NMDA for 10 min, co-treatment; LDH release 24 hr later. The method, then: Mouse cortical cell cultures (DIV 12-14) were exposed to 300 μM NMDA for 10 min, alone or with inclusion of 3-300 μM 2-Hydroxy-TTBA. Neuronal death was analyzed 24 hr later by measuring levels of LDH released into the bathing medium, mean ±SEM (n=9-12 culture wells per condition), scaled to mean LDH efflux value 24 hr after sham wash (=0) and continuous exposure to 500 μM NMDA (=100) that causes near complete neuronal death. *, Significant difference from the vehicle control, p<0.05 using ANOVA and Student-Neuman-Keuls' test.
Mouse cortical cell cultures (DIV 12-14) were exposed to 300 μM NMDA for 10 min, alone (□) or with inclusion of 3-300 μM 2-Hydroxy-TTS (●), 2-Hydroxy-TTA (◯), 2-Ethan-TTBA (▾), 2-Propan-TTBA (∇), or 2-Cyclohexan-TTBA (▪). Neuronal death was analyzed 24 hr later by measuring levels of LDH released into the bathing medium, mean ±SEM (n=9-12 culture wells per condition), scaled to mean LDH efflux value 24 hr after sham wash (=0) and continuous exposure to 500 μM NMDA (=100). *, Significant difference from the vehicle control, p<0.05 using ANOVA and Student-Neuman-Keuls' test.
For mixed neuron-glia culture, mouse cerebral cortices were removed from brains of the 14-16 day-old-fetal mice (E14-16), gently triturated and plated on 24 well plates (2×10^5 cells/plate) precoated with 100 μg/ml poly-D-lysine and 4 μg/ml laminine. […]
On the technique in general: LDH in the medium is a marker of cell lysis.

Experiment [2] in a line: DPPH free radical scavenging assay. Format: biochemical. To be noted: 100 μM DPPH in ethanol; absorption at 517 nm; 1-100 μM. The protocol: 2-Hydroxy-TTBA (●) or trolox (◯) was reacted with 100 uM 1,1-diphenyl-2-picrylhydrazil (DPPH, a stable free radical) dissolved in ethanol for […]. The radical scavenging activity was determined by measuring the decrease in DPPH levels at 517 nm. *, Significant difference from the vehicle control, p<0.05 using ANOVA and Student-Neuman-Keuls' test.
2-Hydroxy-TTS (●), 2-Hydroxy-TTA (◯), 2-Chloro-TTP (▾) or control (∇) was reacted with 100 uM DPPH dissolved in ethanol. The radical scavenging activity was determined by measuring the decrease in DPPH levels at 517 nm. *, Significant difference from the vehicle control, p<0.05 using ANOVA and Student-Neuman-Keuls' test.
To examine the free radical scavenging effects, 1-100 μM 2-Hydroxy-TTBA, 2-Hydroxy-TTA, 2-Hydroxy-TTS, 2-Chloro-TTP or trolox was reacted with 100 μM DPPH (2,2-diphenyl-1-picryl-hydrazyl radical), a stable free radical, dissolved in ethanol. After incubation for 30 min, relative decrease in DPPH absorption at 517 nm was measured by a spectrophotometer, mean ±SEM (n=3 test tubes per condition). *, Significant difference from the vehicle control (DPPH alone), p<0.05 using ANOVA and Student-Neuman-Keuls' test.
(Loss of DPPH colour is used to gauge radical scavenging.)

Another experiment has as its system C57/BL6 mice, MPTP. The experiment in a line: Dopaminergic neuronal death in substantia nigra after MPTP injection. It is filed as in vivo, mouse. The conditions noted are these: 25 or 50 mg/kg ip every 12 hr, MPTP 40 mg/kg s.c. The method, then: Bright field photomicrographs showing dopaminergic neurons in the substantia nigra immunostained with anti-tyrosine hydroxylase (TH) antibody 3 d following sham control (A) or the single daily injection of 1-methyl-4-phenyl-1,2,3,6-tetrahydropyridine (MPTP, 40 mg/kg, SC) in C57/BL6 mice, alone (B) or with intraperitoneal injections (2 times per day) of 2-Hydroxy-TTBA (C, 25 mg/kg; D, 50 mg/kg) prior to MPTP administration.
Quantification of TH-positive dopaminergic neurons in the substantia nigral sections 3 d following the single daily injection of (MPTP, 40 mg/kg, SC), alone or with pretreatment with 2-Hydroxy-TTBA as described above. *, Significant difference from the control, p<0.05 using ANOVA and Student-Neuman-Keuls' test.
Bright field photomicrographs showing dopaminergic neurons in the substantia nigra immunostained with anti-tyrosine hydroxylase (TH) antibody […] following sham control (A) or the single daily injection of 1-methyl-4-phenyl-1,2,3,6-tetrahydropyridine (MPTP, 40 mg/kg, SC) in C57/BL6 mice, alone (B) or with intraperitoneal injections (2 times per day) of 2-Hydroxy-TTBA (C, 25 mg/kg; D, 50 mg/kg) prior to MPTP administration.
C57/BL6 mice (male, 8 weeks) received the injections of 40 mg/kg MPTP (s.c.), alone or with 25 or 50 mg/kg 2-Hydroxy-TTBA (ip) every 12 hr per day beginning 30 min before MPTP injection. […]

Take `O=C(O)c1cc(NCc2c(F)c(F)c(C(F)(F)F)c(F)c2F)ccc1O` [2-Hydroxy-TTBA, 2-hydroxy-5-(2,3,5,6-tetrafluoro-4-trifluoromethylbenzylamino)benzoic acid]: in experiment [1], the “doses at which NMDA-induced neuronal death was blocked/prevented” value lay in the range of 10 to 300 µM. For the same compound, the “reduction of DPPH levels” value in experiment [2] is “reduced levels of DPPH at lower doses”. Further, the “degeneration of dopaminergic neurons in substantia nigra, 3 d” value with C57/BL6 mice, MPTP (3 d) is given as “significantly attenuated degeneration”. In addition, the “protective effects on dopaminergic neurons, 7 d” value in the experiment on C57/BL6 mice, MPTP (7 d) is given as “protective effects of 2-Hydroxy-TTBA are also observed”.
